Among the data in PubChem BioAssay (NCI) are TGI values, retold here.

The structures appear in SMILES notation.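 Following 48 hours of exposure in 96-well plates, responses at five concentrations were used to interpolate endpoints linearly. Definition used: TGI = concentration required for complete inhibition of growth.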 Bounds are passed on as bounds.

Among the test systems are COLO 205 colon; MDA-MB-435; OVCAR-8 ovarian; IGROV1 ovarian; SK-MEL-5 melanoma; SF-539 CNS; HT29 colon; K-562 leukemia; HCC-2998 colon; RXF 393 renal.
Test in all cases: NCI tumour cell line growth inhibition, 48 h

For the molecule `COC(=O)[C@@]1(Cc2ccc(OC(C)=O)cc2)Cc2cc3ccccc3n2N1`, the TGI in the assay on COLO 205 colon is 92.7 µM; with MDA-MB-435 it was greater than 100 µM; with OVCAR-8 ovarian, greater than 100 µM; in the assay on IGROV1 ovarian, greater than 100 µM; in the assay on SK-MEL-5 melanoma, 37.1 µM; in the assay with SF-539 CNS, greater than 100 µM. Moreover, the TGI with HT29 colon is greater than 100 µM.

Consider `CC(=O)[C@H]1CC[C@@H]2[C@]1(C)CC=C1[C@]23C=C[C@]2(C[C@@H](O)CC[C@]12C)C(C(=O)O)C3C(=O)O` (stereo partly specified), for which the TGI in the assay with COLO 205 colon, in the assay on K-562 leukemia, in the assay with HCC-2998 colon, in the assay with MDA-MB-435, in the assay with OVCAR-8 ovarian and in the assay with IGROV1 ovarian was greater than 100 µM each time. The TGI in the assay with SK-MEL-5 melanoma, with SF-539 CNS and in the assay on HT29 colon was greater than 100 µM in each case.

As for `CN(C)c1ccc(/C=C(\C#N)C(=O)c2ccccc2)cc1Br`, the TGI was greater than 100 µM in the assay on COLO 205 colon; greater than 100 µM with K-562 leukemia; greater than 100 µM in the assay with HCC-2998 colon; greater than 100 µM with OVCAR-8 ovarian; greater than 100 µM in the assay on SK-MEL-5 melanoma; 29.6 µM in the assay with RXF 393 renal. For the same molecule, the TGI in the assay with SF-539 CNS and in the assay with HT29 colon was greater than 100 µM throughout.

`CC(C)C(N=C1CC2CCC1(C(=O)Nc1ccccc1O)C2(C)C)c1ccccc1` (stereo unspecified): the TGI with COLO 205 colon, with K-562 leukemia, in the assay with HCC-2998 colon, in the assay on OVCAR-8 ovarian, in the assay on IGROV1 ovarian and with SK-MEL-5 melanoma was greater than 10 µM each time. Also, the TGI in the assay with SF-539 CNS and with HT29 colon was greater than 10 µM in each case.

Turning to `O=C(C#Cc1ccccc1)Nc1ccccc1CC(c1c[nH]c2ccccc12)c1c[nH]c2ccccc12`, the TGI in the assay on COLO 205 colon was determined as 44.2 µM; with K-562 leukemia, 36.5 µM; in the assay with HCC-2998 colon, 50.6 µM; with OVCAR-8 ovarian, 39.7 µM; with IGROV1 ovarian it was 98.8 µM; in the assay on SK-MEL-5 melanoma, 31.8 µM. Also, the TGI was found to be 14 µM with RXF 393 renal, 30.1 µM in the assay with SF-539 CNS and 87.9 µM in the assay with HT29 colon.

`Cn1cnc([N+](=O)[O-])c1Sc1nnc(-c2ccc(Cl)cc2)n1C`: the TGI in the assay on COLO 205 colon worked out at 24.3 µM; in the assay with K-562 leukemia, 34.2 µM; in the assay with HCC-2998 colon it was 32.3 µM; in the assay with OVCAR-8 ovarian, 46 µM; in the assay on IGROV1 ovarian, 32.7 µM; with RXF 393 renal, 17 µM. Also, the figures for the TGI in the assay on SF-539 CNS and in the assay on HT29 colon were 37.4 µM and 32 µM, respectively.

As for `COc1ccc(-c2oc(C=Nc3ccccc3)c([N+](=O)[O-])c2-c2ccc(OC)c(OC)c2)cc1OC`, the TGI in the assay with COLO 205 colon, in the assay on K-562 leukemia, in the assay with HCC-2998 colon, in the assay on OVCAR-8 ovarian, in the assay on IGROV1 ovarian and in the assay with SK-MEL-5 melanoma was greater than 100 µM in each case. Moreover, the TGI in the assay with RXF 393 renal, in the assay on SF-539 CNS and in the assay on HT29 colon was greater than 100 µM throughout.

For `O=C(Cn1cc(I)c(C(=O)NCC(O)CO)n1)NCC(O)CO` (stereo unspecified), the TGI in the assay on COLO 205 colon, with K-562 leukemia, in the assay with HCC-2998 colon, in the assay with OVCAR-8 ovarian, in the assay on IGROV1 ovarian and in the assay with RXF 393 renal was greater than 100 µM each time. Moreover, the TGI in the assay on SF-539 CNS and with HT29 colon was greater than 100 µM throughout.

Take `CCC(/C(=N/NC(=O)C[N+](C)(C)C)c1ccccc1)C1OC(=O)c2ccccc21` (stereo unspecified): the TGI in the assay on COLO 205 colon, in the assay on K-562 leukemia, with HCC-2998 colon, in the assay on OVCAR-8 ovarian, in the assay with IGROV1 ovarian and in the assay on SK-MEL-5 melanoma was greater than 100 µM each time. Also, the TGI in the assay on RXF 393 renal, with SF-539 CNS and with HT29 colon was greater than 100 µM each time.

For the molecule `CC(=O)O[C@H]1C(=O)[C@@]2(C)C(C(OC(=O)c3ccccc3)[C@]3(O)CC(OC(=O)C(O)C(NC(=O)c4cccc(Cl)c4)c4ccccc4)C(C)=C1C3(C)C)[C@]1(OC(C)=O)CO[C@@H]1C[C@@H]2O` (stereo partly specified), the TGI was 4.58 µM in the assay with COLO 205 colon; greater than 10 µM in the assay with K-562 leukemia; 4.1 µM in the assay on HCC-2998 colon; 0.417 µM in the assay on MDA-MB-435; greater than 10 µM in the assay with OVCAR-8 ovarian; greater than 10 µM in the assay with IGROV1 ovarian. The TGI with SK-MEL-5 melanoma was 6.22 µM; with SF-539 CNS, 2.19 µM; with HT29 colon, greater than 10 µM.

Turning to `CSCCC(NOC(=O)Cc1ccccc1)P(=O)(O)c1ccccc1` (stereo unspecified), the TGI in the assay on COLO 205 colon, in the assay on K-562 leukemia, in the assay on HCC-2998 colon, in the assay on MDA-MB-435, in the assay with OVCAR-8 ovarian and in the assay on IGROV1 ovarian was greater than 100 µM in each case. Further, the TGI in the assay on SK-MEL-5 melanoma and in the assay on HT29 colon was greater than 100 µM in each case.

Consider `CCOC1=C2N=C(C(CC)c3ccc(F)cc3)N=C2C(=O)c2ccccc21` (stereo unspecified), for which the TGI in the assay with COLO 205 colon is 47 µM; in the assay on K-562 leukemia, greater than 100 µM; in the assay with HCC-2998 colon it was greater than 100 µM; in the assay on OVCAR-8 ovarian, greater than 100 µM; with IGROV1 ovarian, greater than 100 µM; in the assay on SK-MEL-5 melanoma, 26.9 µM. For the same molecule, the TGI in the assay with RXF 393 renal is 39.5 µM; in the assay on SF-539 CNS, 21.6 µM; in the assay with HT29 colon, 45.3 µM.

In the case of `CCN(CC)CCNC(=O)C1COc2ccc(-c3cc(=O)c4ccccc4o3)cc2O1` (stereo unspecified), the TGI in the assay on COLO 205 colon came out at 34 µM; with K-562 leukemia it was 49 µM; with HCC-2998 colon, 35.4 µM; with OVCAR-8 ovarian, 33.4 µM; in the assay on IGROV1 ovarian it was 63.5 µM; in the assay on SK-MEL-5 melanoma, 35.9 µM. Moreover, the TGI was determined as 35.4 µM in the assay with RXF 393 renal, 30 µM in the assay with SF-539 CNS and 34.6 µM with HT29 colon.

For `O=C1C2Cc3ccccc3CN2C(=O)N1CN1CCCCC1` (stereo unspecified), the TGI in the assay on COLO 205 colon, with K-562 leukemia, in the assay with HCC-2998 colon, in the assay with OVCAR-8 ovarian, with IGROV1 ovarian and in the assay on SK-MEL-5 melanoma was greater than 100 µM in each case. The TGI in the assay on SF-539 CNS was greater than 100 µM.

Regarding `O=C(N/N=C/c1ccc(O)cc1)NNCCO`, the TGI in the assay on COLO 205 colon, in the assay on K-562 leukemia, in the assay on HCC-2998 colon, in the assay on MDA-MB-435, with OVCAR-8 ovarian and in the assay on IGROV1 ovarian was greater than 100 µM in each case. Besides, the TGI in the assay on SK-MEL-5 melanoma, with SF-539 CNS and in the assay with HT29 colon was greater than 100 µM each time.
